The nature of series [1]: UV-VIS absorption of the photoinitiators. Conditions: for long-wave absorption maximum (λmax): UV-VIS; for extinction coefficient ε: at λmax. The format is physicochemical. An excerpt:
The photoinitiator di-Ge according to the invention with a long-wave absorption maximum of 400.5 nm has an extinction coefficient ε=3260 dm^2/mol which is thus more than twice that of benzoyltrimethylgermane mono-Ge (ε=1461 dm^2/mol), which leads to an improvement in photopolymerization activity. Compared with the Norrish type II photoinitiator camphorquinone widely used in the dental field, the extinction coefficient of which ε at λmax of 468 nm is only 380 dm^2/mol and which moreover requires an additional reducing agent, in most cases amine, for effective radical formation, the absorption maximum of di-Ge is clearly on a shorter wavelength and thus fades very well when irradiated.

The conditions of series [2]: background statement; cited from earlier work.

Several values for one entry are separate records, joined by “and”; a condition that tells them apart may be missing. Equal entries are not always repeated.

`[CH3][Ge]([CH3])([CH3])[C](=O)c1ccc(OCCCCCCOc2ccc([C](=O)[Ge]([CH3])([CH3])[CH3])cc2)cc1` [di-Ge, 1,6-bis[4-(trimethylgermylcarbonyl)phenoxy]hexane]: in series [1], the “long-wave absorption maximum (λmax)” value was 400.5 nm and the “extinction coefficient ε” value was determined as 3260 dm^2/mol.
As to `[CH3][Ge]([CH3])([CH3])[C](=O)c1ccccc1` [mono-Ge, benzoyltrimethylgermanium], in series [1], the “long-wave absorption maximum (λmax)” value amounted to 411.5 nm; the “extinction coefficient ε” value is 1374 dm^2/mol and 1461 dm^2/mol.
In the case of `CC12CCC(C(=O)C1=O)C2(C)C` (stereo not shown) [camphorquinone], in series [2], the absorption maximum wavelength is given as 468 nm. Also, in series [1], the “long-wave absorption maximum (λmax)” value turned out to be 468 nm and the “extinction coefficient ε” value is 380 dm^2/mol.

The record behind these values is US8829067B2, “Polymerizable compositions with initiators containing several Ge atoms” (Ivoclar Vivadent AG, priority 2008, dated 2014).
